Data as given in article PMC13261308, “Mapping Functionally Relevant Tractable Lysines of Challenging Protein Targets by Covalent Fragment Screening” (Chembiochem, 2026).

Experiments:
[1] = HPLC-MS-based N-α-acetyl-lysine reactivity assay; details: pH 10.2, monitored for 24 h
Procedure: (§1) 1.2.1 HPLC-MS-based N-α-acetyl-lysine reactivity assay3
(§2) HPLC-MS measurements were performed using a Shimadzu LCMS-2020 device equipped with a positive–negative double ion source (DUIS±) and a quadrupole MS analyzer in the range of m/z 50–1000. The sample was eluted with gradient elution using eluent A (0.1% HCOOH in H2O) and eluent B (0.1% HCOOH in MeCN). The column temperature was always kept at 30 °C; the injection volume was 10 µL, and the flow rate was set to 1.5 mL/min. A Reprospher C18 (5 μm, 100 mm × 3 mm) column was used along with the following gradient. The in itial condition was 0% B eluent, followed by a linear gradient to 100% B eluent by 2 min; from 2 to […]
(§3) was restored and retained until 5 min.
(§4) For the reactivity and stability assay, in a glass LC-MS vial the internal standard (indoprofen or papaverine or 1,4-dicyanobenzene, 50 µL, 2 mM in acetonitrile) and the 100 mM BBS buffer […]
(§5) of reactivity or stability, respectively). Finally, to this mixture the corresponding electrophile was added (50 µl, 20 mM in acetonitrile) right before the measurement. The vial was mixed, then analyzed by HPLC-MS (10 µL injection volume) at intervals of approximately 60 min (0-4 h, 6 […]
(§6) Final volume was 1 mL. In the case of highly reactive compounds, the measurement was done within 1 h, monitored every 5 minutes. The AUC (area under the […]
(§7) corrected with the internal standard. The fragments’ AUC values were subjected to ordinary least-squares (OLS) linear regression, and to compute the important parameters (kinetic rate constant and half-life time), an Excel sheet was applied. The data are expressed as means of duplicate determination. The kinetic rate constant for the degradation and corrected N-α-acetyl-lysine reactivity were calculated as follows. The reaction half-life for pseudo-first-order reactions (t1/2) is ln 2/k, where k is the reaction rate. In the case of competing reactions (reaction with N-α-acetyl-lysine and degradation), the apparent reaction rate is kLys = kBlank + kBinding.
(§8) When half-lives are measured experimentally, t1/2(Lys) = ln 2/(kLys) = ln 2/(kBlank + kBinding). In our case, the corrected kBlank and kLys (regarding blank and N-α-acetyl lysine-containing samples, respectively) can be calculated by linear regression of the measured kinetic data points. […]

[2] = HPLC-MS-based stability (blank, without N-α-acetyl-lysine) in BBS buffer pH 10.2; details: pH 10.2 buffer without N-α-acetyl-lysine
Procedure: as §1, §2, §3, §4, §5, §6, §7, §8

For CC(=O)N(C(=O)c1cc(C(F)(F)F)cc(C(F)(F)F)c1)c1ccccc1 [compound 13], the “Lys-reactivity t1/2, pH 10.2” value [1] was 0.27 h.
For COc1c(Nc2cc(C(F)(F)F)cc(C(F)(F)F)c2)c(=O)c1=O [compound 18], the “Stability t1/2, pH 10.2” value [2] was 12.17 h.
With FC(F)(F)c1cc(Nc2nc(Cl)nc(Cl)n2)cc(C(F)(F)F)c1 [compound 19] the “Stability t1/2, pH 10.2” value [2] was 0.97 h.
With O=S(=O)(On1nnc2ccccc21)c1cc(C(F)(F)F)cc(C(F)(F)F)c1 [compound 6] the “Stability t1/2, pH 10.2” value [2] was 0.35 h.
With O=Cc1c(O)cc(C(F)(F)F)cc1C(F)(F)F [compound 26] the “Lys-reactivity t1/2, pH 10.2” value [1] was 40.93 h and the “Stability t1/2, pH 10.2” value [2] was 246.76 h.
In the case of O=S(=O)(F)Oc1cc(C(F)(F)F)cc(C(F)(F)F)c1 [compound 4], the “Stability t1/2, pH 10.2” value [2] is reported as 4.94 h.
In the case of FC(F)=Cc1cc(C(F)(F)F)cc(C(F)(F)F)c1 [compound 17], the “Stability t1/2, pH 10.2” value [2] is reported as 3.32 h.
For Cc1ccc(S(=O)(=O)N(CC#N)C(=O)Cc2cc(C(F)(F)F)cc(C(F)(F)F)c2)cc1 [compound 8], the “Lys-reactivity t1/2, pH 10.2” value [1] was 0.26 h and the “Stability t1/2, pH 10.2” value [2] was 0.17 h.
For C#Cc1ccc(C(F)(F)F)cc1C=O [compound 32], the “Lys-reactivity t1/2, pH 10.2” value [1] was 0.23 h and the “Stability t1/2, pH 10.2” value [2] was 15.36 h.
In the case of O=Cc1cc2ccccc2cc1C=O [compound 31, 2,3‐naphthalene‐dicarboxaldehyde], the “Stability t1/2, pH 10.2” value [2] is reported as 11.69 h.
